Laboratory results taken from patent US5861405A, “S-substituted 1,3,7-trialkyl-xanthine derivatives” (priority 1994, dated 1999).
Values after ≈ are worked out from the molar mass of the structure shown. Values joined by “and” are separate entries in the source; they are usually repeats but may differ in a detail not shown here. Identical values can stand only once. Like-named read-outs stand apart in the source and are kept apart here.

Columns and labels:
[1] = test system: rat brain A2a- vs. A1-receptors; details: cited from earlier work
locomotor activity = details: cited from earlier work
[2] = target: A2 receptors, rat striatum; details: vs [3H]NECA in rat striatum; read-out: Ki (A2a), Shimada et al.; cited from earlier work
A2 receptors, rat brain = details: read-out: Ki (A2a), Erickson et al.; cited from earlier work
[3] = target: A1 receptors, guinea pig brain; details: vs [3H]CHA in guinea pig brain; read-out: Ki (A1), Shimada et al.; cited from earlier work
[4] = target: T1, rat striatal A2a receptors (Rattus norvegicus, UniProt P30543); experiment: Radioligand binding, [3H]CGS 21680, rat striatal A2a receptors; parameters: Rat cerebral cortical membranes and striatal membranes were prepared; from tissue; host or cells: rat striatal membranes
Procedure: (§1) The 1,3,7-trialkyl-8-substituted xanthine compounds of the present invention were tested in a radioligand binding assay for affinity at adenosine receptors in rat brain membranes.
The stock solutions were diluted with DMSO to a concentration of ≥0.1 mM prior to adding to the aqueous medium. The final concentration of DMSO in the assay medium was generally 2%.
Test drugs were dissolved in DMSO and added in 10 μl aliquots, resulting in a final DMSO concentration of 2%. Non-specific binding was defined using 20 μM 2-chloroadenosine. Filtration was carried out using a Brandel Cell Harvester, as above, using Tris HCl/MgCl2 as the washing buffer.
(§2) At least six different concentrations spanning three orders of magnitude, adjusted appropriately for the IC50 of each compound, were used.

[5] = test system: locomotor activity in mice; experiment: Locomotor activity in mice, open field (Digiscan activity monitor); assay type: in vivo, mouse; details: for locomotor stimulation, in words: mice
Procedure: Adult male mice of the NIH (Swiss) strain weighing 25-30 g were housed in groups of 10 animals per cage with a light-dark cycle of 12:12 h. The animals were given free access to standard pellet food and water and were acclimatized to laboratory conditions for 24 h prior to testing. Each animal was used only once in the activity monitor.
Locomotor activity of individual animals was studied in an open field using a Digiscan activity monitor (Omnitech Electronics Inc., Columbus, Ohio) equipped with an IBM-compatible computer. The computer-tabulated measurements represent multivariate locomotor analysis with specific measures, such as simultaneous measurements of ambulatory, rearing, stereotypical, and rotational behaviors. Data were collected in the morning, for three consecutive intervals of 10 minutes each, and analyzed separately and as a group. Statistical analysis was performed using the Student t test. […] Drugs were administered i.p. in a volume corresponding to 5 ml/kg body weight. Where applicable, the antagonist was injected 10 minutes before the agonist. ED50 values were determined using regression analysis on the InPlot software (GraphPAD, San Diego, Calif.).

[6] = test system: locomotor activity in mice; details: postinjection (Baumgold et al.); cited from earlier work
[7] = target: T2, rat A1 cortical receptors (Rattus norvegicus, UniProt P25099); experiment: Radioligand binding, [3H]N6-phenylisopropyladenosine ([3H]PIA), rat cortical A1 receptors
T2 construct: Rat cerebral cortical membranes and striatal membranes were prepared; from tissue; host or cells: rat cerebral cortex membranes
T2 sequence (P25099 1-326): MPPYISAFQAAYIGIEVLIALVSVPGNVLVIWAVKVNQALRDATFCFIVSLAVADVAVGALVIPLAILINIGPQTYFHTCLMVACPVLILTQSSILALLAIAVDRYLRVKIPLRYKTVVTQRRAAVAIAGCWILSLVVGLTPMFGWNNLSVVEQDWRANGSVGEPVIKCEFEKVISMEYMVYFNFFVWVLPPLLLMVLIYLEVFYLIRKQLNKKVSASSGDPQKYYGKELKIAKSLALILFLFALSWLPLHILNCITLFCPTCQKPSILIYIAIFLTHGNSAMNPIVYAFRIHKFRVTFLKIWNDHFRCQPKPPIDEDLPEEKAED
Procedure: as §1
The final concentration of DMSO in the assay medium was generally 2%.
Membranes (~100 μg protein per tube) were incubated for 1.5 h at 37° C. in a total volume of 0.5 ml of 50 mM Tris hydrochloride, at pH 7.4. Test drugs were dissolved in DMSO and added in 10 μl aliquots, resulting in a final DMSO concentration of 2%. Bound and free radioligand were separated by addition of 3 ml of a buffer containing 50 mM Tris hydrochloride, pH 7.4, at 5° C., followed by vacuum filtration using a Brandel Cell Harvester (Brandel, Gaithersburg, Md.) and a Whatman GF/B glass fiber filter with additional washes totaling 9 ml of buffer. Non-specific binding was determined with 10 μM 2-chloroadenosine.
as §2

Aqueous solubility = details: for solubility kinetic: water, 0.5% dmso, organic solvent or mixture
Procedure: To avoid precipitation associated with serial aqueous dilutions, the only point at which DMSO was added to aqueous medium was immediately prior to the incubation.

[8] = target: A1 receptor, rat adipocytes (Rattus norvegicus, UniProt P25099); experiment: biochemical
Procedure: KB values were calculated using the Schild equation from the ratio of EC50 values for agonist in the presence and absence of antagonist.

[9] = target: T3, A2a receptor, human platelets (Homo sapiens, UniProt P29274); experiment: Antagonism of NECA-elicited stimulation of adenylate cyclase, human platelets; assay type: biochemical
T3 construct: PC12) cell membranes or in human platelets; from tissue; host or cells: human platelets

[10] = target: T4, A2a receptor, rat pheochromocytoma (PC12) cells (Rattus norvegicus, UniProt P30543); experiment: biochemical; details: Table VI; read-out: Adenylate cyclase (KB), rat PC12 cells A2a
T4 construct: via an A2a receptor in rat pheochromocytoma (PC12) cell membranes; endogenous in cells; host or cells: PC12 cells (rat pheochromocytoma)

[11] = target: T5, A2a receptors, rat striatum (Rattus norvegicus, UniProt P30543); experiment: Radioligand binding vs [3H]N-ethylcarboxamidoadenosine, rat striatum; parameters: Striatal tissue was isolated by dissection of rabbit, bovine, and rat brain; tissue Pel-Freeze Biologicals Co; host or cells: rat striatal membranes (frozen brain); details: Table VI; vs [3H]NECA; read-out: Inhibition of binding (Ki), rat striatum A2a
[12] = target: T5, A2a receptors, rat striatum; details: four species (rat, guinea pig, bovine, rabbit)
[13] = target: T6, A1 receptors, rabbit striatum (Oryctolagus cuniculus, UniProt P34970); experiment: Competition binding vs [3H]PIA, rabbit striatal membranes
T6 construct: Striatal tissue was isolated by dissection of rabbit, bovine, and rat brain; tissue Pel-Freeze Biologicals Co; host or cells: rabbit striatal membranes (frozen brain)

[14] = target: T1, rat striatal A2a receptors; experiment: biochemical
[15] = target: T7, A1 receptors, rat striatum (Rattus norvegicus, UniProt P25099); experiment: Competition binding vs [3H]PIA, rat striatal membranes
T7 construct: Striatal tissue was isolated by dissection of rabbit, bovine, and rat brain; tissue Pel-Freeze Biologicals Co; host or cells: rat striatal membranes (frozen brain)
T7 sequence (P25099 1-326): T2 sequence (P25099 1-326)

[16] = target: T5, A2a receptors, rat striatum; experiment: biochemical
bovine A2a receptors = bovine A2a receptors (Bos taurus, UniProt E1BKU0); experiment: biochemical
[17] = target: T8, A1 receptors, guinea pig striatum (Cavia porcellus, UniProt P47745); experiment: Competition binding vs [3H]PIA, guinea pig striatal membranes
T8 construct: guinea pig, bovine, and rabbit striatal membranes; tissue Keystone Biologicals; host or cells: guinea pig striatal membranes (frozen brain)

[18] = target: T9, A1 receptors, bovine striatum (Bos taurus, UniProt P28190); experiment: Competition binding vs [3H]PIA, bovine striatal membranes
T9 construct: Striatal tissue was isolated by dissection of rabbit, bovine, and rat brain; tissue Pel-Freeze Biologicals Co; host or cells: bovine striatal membranes (frozen brain)

[19] = target: A2a receptors, bovine striatum (Bos taurus, UniProt E1BKU0); experiment: biochemical
[20] = target: T1, rat striatal A2a receptors
[21] = target: A2a receptors, rabbit striatum (Oryctolagus cuniculus, UniProt G1SVQ2); experiment: biochemical
rabbit A2a receptors = rabbit A2a receptors (Oryctolagus cuniculus, UniProt G1SVQ2); experiment: biochemical
[22] = test system: A1 receptors, rat striatal membranes; experiment: Irreversible inhibition after preincubation and washing, [3H]PIA, rat striatal membranes; assay type: binding; details: preincubation with 20 μM ISC, 60 min
Procedure: Striatal membranes were treated with inhibitor as follows.

[23] = Table I, vs [3H]CGS21680 (5 nM), rat striatal A2 receptors, read-out: Ki (A2a)
[24] = Table VI, vs [3H]PIA, read-out: Inhibition of binding (Ki), rat cortex A1
[25] = Table I, vs [3H]PIA (1 nM), rat A1 receptors, read-out: Ki (A1)

T5 sequence (P30543 whole entry): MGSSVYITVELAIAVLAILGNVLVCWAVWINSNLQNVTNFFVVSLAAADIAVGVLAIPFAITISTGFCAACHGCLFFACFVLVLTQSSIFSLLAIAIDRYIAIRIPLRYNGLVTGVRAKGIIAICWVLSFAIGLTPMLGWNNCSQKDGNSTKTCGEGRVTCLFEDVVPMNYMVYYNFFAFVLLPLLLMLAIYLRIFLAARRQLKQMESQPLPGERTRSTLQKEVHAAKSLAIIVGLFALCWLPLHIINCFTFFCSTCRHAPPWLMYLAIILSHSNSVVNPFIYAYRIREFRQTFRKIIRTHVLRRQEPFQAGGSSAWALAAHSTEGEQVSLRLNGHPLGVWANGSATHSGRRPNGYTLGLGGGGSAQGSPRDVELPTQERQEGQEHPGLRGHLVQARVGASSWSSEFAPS
T1 sequence (P30543 whole entry): as above
Chain of A2a receptors, rabbit striatum (G1SVQ2 1-409): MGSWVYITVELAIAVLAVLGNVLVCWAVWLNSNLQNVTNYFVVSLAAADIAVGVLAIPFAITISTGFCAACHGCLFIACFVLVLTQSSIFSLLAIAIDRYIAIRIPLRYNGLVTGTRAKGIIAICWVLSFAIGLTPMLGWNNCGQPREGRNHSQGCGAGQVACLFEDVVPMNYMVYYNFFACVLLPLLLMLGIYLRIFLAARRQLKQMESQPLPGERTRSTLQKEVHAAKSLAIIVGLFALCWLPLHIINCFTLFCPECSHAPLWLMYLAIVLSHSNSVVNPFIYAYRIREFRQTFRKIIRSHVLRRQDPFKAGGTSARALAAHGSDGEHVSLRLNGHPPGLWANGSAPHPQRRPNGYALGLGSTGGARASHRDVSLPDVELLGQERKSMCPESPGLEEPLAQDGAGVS
T6 sequence (P34970 whole entry): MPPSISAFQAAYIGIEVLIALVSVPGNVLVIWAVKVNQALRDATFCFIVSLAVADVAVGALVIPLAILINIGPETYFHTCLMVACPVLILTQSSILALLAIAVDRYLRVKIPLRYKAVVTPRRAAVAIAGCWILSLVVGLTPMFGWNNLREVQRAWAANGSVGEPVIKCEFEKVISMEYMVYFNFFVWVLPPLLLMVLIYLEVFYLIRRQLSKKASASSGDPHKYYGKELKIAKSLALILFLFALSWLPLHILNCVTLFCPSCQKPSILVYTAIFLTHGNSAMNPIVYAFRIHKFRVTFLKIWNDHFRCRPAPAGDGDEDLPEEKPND
Chain of rabbit A2a receptors (G1SVQ2 1-409): as the sequence (G1SVQ2 1-409) above
T4 sequence (P30543 whole entry): as the sequence (P30543 whole entry) above
T8 sequence (P47745 whole entry): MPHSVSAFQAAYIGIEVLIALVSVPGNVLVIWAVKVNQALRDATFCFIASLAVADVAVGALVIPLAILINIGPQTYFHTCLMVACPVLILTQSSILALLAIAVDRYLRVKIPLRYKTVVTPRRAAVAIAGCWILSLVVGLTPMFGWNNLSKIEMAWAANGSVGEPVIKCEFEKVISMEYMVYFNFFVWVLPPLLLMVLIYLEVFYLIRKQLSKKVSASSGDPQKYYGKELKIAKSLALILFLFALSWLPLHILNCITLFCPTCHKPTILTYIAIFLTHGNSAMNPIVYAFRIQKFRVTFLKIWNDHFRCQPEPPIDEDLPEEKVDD
T9 sequence (P28190 whole entry): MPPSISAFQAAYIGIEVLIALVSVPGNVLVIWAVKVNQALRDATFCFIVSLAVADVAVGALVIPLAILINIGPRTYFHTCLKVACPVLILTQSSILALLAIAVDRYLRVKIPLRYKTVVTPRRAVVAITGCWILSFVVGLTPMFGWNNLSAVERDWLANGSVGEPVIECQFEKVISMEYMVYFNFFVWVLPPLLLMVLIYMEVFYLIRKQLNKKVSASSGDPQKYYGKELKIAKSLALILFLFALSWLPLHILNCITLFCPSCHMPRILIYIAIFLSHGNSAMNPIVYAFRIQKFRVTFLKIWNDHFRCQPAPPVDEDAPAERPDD
T3 sequence (P29274 whole entry): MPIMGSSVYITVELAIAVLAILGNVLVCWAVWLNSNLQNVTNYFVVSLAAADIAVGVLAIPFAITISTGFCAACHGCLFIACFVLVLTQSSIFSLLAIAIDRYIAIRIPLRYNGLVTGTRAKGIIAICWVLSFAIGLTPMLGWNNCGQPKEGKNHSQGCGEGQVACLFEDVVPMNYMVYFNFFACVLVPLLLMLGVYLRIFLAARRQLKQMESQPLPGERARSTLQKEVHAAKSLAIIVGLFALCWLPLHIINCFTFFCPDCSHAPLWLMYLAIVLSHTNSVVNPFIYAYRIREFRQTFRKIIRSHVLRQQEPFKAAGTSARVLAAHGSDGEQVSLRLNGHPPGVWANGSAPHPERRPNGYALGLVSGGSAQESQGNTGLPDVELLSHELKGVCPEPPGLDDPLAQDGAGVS
Chain of A2a receptors, bovine striatum (E1BKU0 1-401): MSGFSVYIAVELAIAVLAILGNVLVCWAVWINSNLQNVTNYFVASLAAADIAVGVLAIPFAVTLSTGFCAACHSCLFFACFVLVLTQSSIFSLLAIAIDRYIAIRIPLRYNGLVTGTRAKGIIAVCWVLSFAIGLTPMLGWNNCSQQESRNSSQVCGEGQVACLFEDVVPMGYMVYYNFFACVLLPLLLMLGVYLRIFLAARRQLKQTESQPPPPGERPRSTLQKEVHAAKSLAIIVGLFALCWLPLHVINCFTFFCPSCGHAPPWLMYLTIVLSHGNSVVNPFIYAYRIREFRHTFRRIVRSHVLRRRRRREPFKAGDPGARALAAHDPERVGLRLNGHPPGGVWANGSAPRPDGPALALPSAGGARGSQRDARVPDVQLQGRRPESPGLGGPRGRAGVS
Chain of bovine A2a receptors (E1BKU0 1-401): as above

In the case of `Nc1nc2ccc(Cl)cc2n2c(-c3ccccc3)nnc12` [CP66,713], the “selectivity A2a vs. A1” value [1] is given as 12 fold, the “effect on A1 depression of locomotor activity” value (locomotor activity; in vivo, same dose) is given as “no effect on A1 depression of locomotor activity” and the “antagonism of A2 depression of locomotor activity” value (locomotor activity; in vivo) is given as “partial antagonism of A2 depression of locomotor activity”.

In the case of `CCCn1c(=O)c2[nH]c(/C=C/c3ccccc3)nc2n(CCC)c1=O` [Compound 47], the Ki [2] is given as 26 nM, the Ki (A2 receptors, rat brain) is given as 85 nM and the Ki [3] is given as 1800 nM. It also gave a Ki [4, 23] of 44 ± 19 nM.

For `CCNC(=O)[C@H]1O[C@@H](n2cnc3c(N)nc(NCCc4ccc(CCC(=O)NCCN)cc4)nc32)[C@H](O)[C@@H]1O` [APEC, 2-[(2-aminoethylamino)-carbonylethylphenylethylamino]-5'-N-ethylcarboxamidoadenosine, reference compound], the total distance traveled ([5]; APEC alone 16 μg/kg, n=13) is listed as 2277±229 cm/30 min, the “ED50 for locomotor depression elicited by APEC” value ([5]; following 1 mg/kg CSC) is listed as 0.19 mg/kg and the “ED50 for locomotor depression” value (locomotor activity; i.p., previously determined) is listed as 0.016 mg/kg.

In the case of `Cn1c(=O)c2[nH]c(C3CCCC3)nc2n(C)c1=O` [CPT, 8-cyclopentyltheophylline, reference compound], the “time until stimulatory effect disappears” value [6] is given as no more than 20 min, the “locomotor stimulation, in words” value [5] is given as “moderate, but transient, locomotor stimulation” and the Behavioral stimulation ([5]; typical dose 10 (mg/kg, i.p.)) is given as “++”. For the same molecule, the Ki [7, 24] was 24 nM.

With `Cn1c(=O)c2c(nc(/C=C/c3cccc(Cl)c3)n2C)n(C)c1=O` [Compound 28a, 1,3,7-trimethyl-8-(3-chlorostyryl) xanthine] the “increase in clockwise and anti-clockwise rotations” value [5] was 30-60%, the “effect on locomotor activity of concurrent administration” value ([5]; APEC 16 μg/kg with CSC 5 mg/kg) was “no effect on the locomotor activity” and the “reversal of APEC-elicited locomotor depression” value ([5]; CSC 1 mg/kg i.p., APEC 16 μg/kg) was “nearly completely reverse the locomotor depression”. For the same molecule, the total distance traveled ([5]; CSC 1.0 mg/kg with CPX […], n=9) was 4861±243 cm/30 min, the “stimulation of locomotor activity over CSC alone” value ([5]; CSC 1.0 mg/kg with CPX […], p<0.001) was 37% and the total distance traveled ([5]; CSC 5 mg/kg alone, n=13) was 4223±496 cm/30 min. The “increase in locomotor activity versus APEC alone” value ([5]; CSC 5 mg/kg with APEC 16 μg/kg) was 73%, the total distance traveled ([5]; CSC 5 mg/kg with APEC 16 μg/kg, n=14) was 3949±284 cm/30 min and the total distance traveled ([5]; CSC 5 mg/kg with CHA, n=8) was 2029±250 cm/30 min. For the same molecule, the “locomotor stimulation over vehicle control” value ([5]; CSC 5 mg/kg, 30 min) was 22%, the “effect on locomotor depression elicited by CHA” value ([5]; CSC 5 mg/kg, CHA 100 μg/kg i.p.) was “no effect on locomotor depression” and the “increase in locomotor activity versus control” value ([5]; CSC 5 mg/kg, last 10 minutes of 30 min) was 56%. For the same molecule, the total distance traveled ([5]; CSC alone 1 mg/kg i.p., n=19) was 3550±230 cm/30 min, the “increase in average distance per move” value ([5]; CSC with CPX) was “approximately 30%” and the “locomotor stimulation, in words” value [5] was “no significant effect on locomotor activity”. For the same molecule, the Behavioral stimulation ([5]; typical dose 5 (mg/kg, i.p.)) was “+” and the solubility (Aqueous solubility; injection vehicle) was less than 1000 µg/mL.

Work on `C#CCn1c(=O)c2c(ncn2C)n(C)c1=O` [DMPX, 3,7-dimethyl-1-propargylxanthine] yielded a Kb [8] of 94000 nM, a Kb [9] of 4000 nM and a Kb [10] of 9600 nM. The Behavioral stimulation ([5]; typical dose 10 (mg/kg, i.p.)) was “+++”, the Ki [7, 24] was 45000 nM and the Ki [11] was 16000 nM.

In the case of `CCCn1c(=O)c2[nH]c(/C=C/c3ccc(OC)c(OC)c3)nc2n(CCC)c1=O` [Compound 52a], the Ki [2] is given as 6700 nM, the Ki [3] is given as 1700 nM and the Ki [7, 25] is given as 71 ± 11 nM.

For `COc1cc(/C=C/c2nc3c([nH]2)c(=O)n(C)c(=O)n3C)cc(OC)c1OC` [Compound 44a], the Ki [2] is given as 71 nM, the Ki [3] is given as greater than 100000 nM and the Ki [7, 25] is given as 2280 nM.

For `Cn1c(=O)c2c(nc(/C=C/c3cccc(N=C=S)c3)n2C)n(C)c1=O` [Compound 28e, 1,3,7-trimethyl-8-(3-isothiocyanatostyryl)xanthine], the “Hill coefficients for displacement of [3H]CGS 21680” value [12] was roughly 1, the IC50 [13] was 75600 nM and the IC50 [14] was 2700 nM. The inhibition at 20 µM ([14]; 1 h, read-out: loss of specific [3H]CGS 21680 binding, preincubation with 20 μM ISC, rat) was roughly 80%, the inhibition at 2 µM ([14]; 2 h, read-out: loss of specific [3H]CGS 21680 binding at 2 h, 2 μM ISC, 25° C.) was roughly 55% and the IC50 ([15]; IC50 (A1), rat, vs [3H]PIA (1 nM)) was 42600 nM. It also gave an IC50 ([15]; IC50 at A1-receptors, rat striatum) of 43000 nM, a Ki ([15]; Ki value (A1), rat striatum, Table V footnote b) of 20300 nM and a Ki ([15]; Ki value at A1-receptors, rat striatum) of 20000 nM. It also gave an IC50 [16] of 146 nM, a Ki [16] of 111 nM and an EC50 (bovine A2a receptors) of 8000 nM. For the same molecule, the IC50 [17] was 51400 nM, the Ki [7] was 20300 nM and the Ki ([4]; Ki (A2a)) was 111 ± 1 nM. The IC50 [18] was 63400 nM, the IC50 [19] was 516 ± 64 nM and the “time for inhibition of 50% of final value at 2 h” value ([20]; 2 μM ISC, 25° C.) was “Approximately 3 min”. The “regeneration of A2a-receptor binding” value ([20]; IBMX 100 μM overnight on ISC-treated membranes) was “did not regenerate any A2a -receptor binding”, the IC50 [21] was 413 ± 135 nM and the Ki [21] was 347 ± 112 nM. For the same molecule, the EC50 (rabbit A2a receptors) was 10000 nM and the “loss of [3H]PIA binding” value [22] was 12±2.9%.

For `COc1cc(/C=C/c2nc3c(c(=O)n(C)c(=O)n3C)n2C)cc(OC)c1OC` [Compound 44b, 1,3,7-trimethyl-8-(3,4,5-trimethoxy)-styryl-xanthine], the Ki [2] is given as 18 nM, the Ki [3] is given as greater than 100000 nM and the Ki [7, 25] is given as 9200 nM.

For `CCCn1c(=O)c2c(nc(/C=C/c3cc(OC)cc(OC)c3)n2C)n(CCC)c1=O` [Compound 53b, 1,3-Dipropyl-7-methyl-8-(3,5-dimethoxystyryl)xanthine], the solubility kinetic (Aqueous solubility; concentration above which compound did not remain dissolved) was 10 µM (≈ 4.12 µg/mL), the solubility kinetic (Aqueous solubility; theoretical concentration beyond which UV absorption decreases (supersaturation)) was 20 µM (≈ 8.25 µg/mL) and the “apparent A1 affinity versus DMSO concentration” value ([7]; 0.5 and 1% DMSO) was “somewhat dependent on DMSO concentration”. The Ki [7, 25] was 2630 nM, the “selectivity relative to 52b” value [4] was 5 fold and the “apparent affinity at A2 receptors versus DMSO concentration” value ([4]; 0.5% to 6% DMSO) was “constant within the range of 0.5% to 6% DMSO”. For the same molecule, the Ki ([4]; Ki value / affinity at A2 receptors) was 24 nM and ≤ 50 nM, the A1/A2a ratio ([4]; Table I, ratio of Ki values) was 110 and the Ki [4, 23] was 24 ± 6 nM. For the same molecule, the A2-selectivity ([4]; rat brain binding, this study) was 110 fold.

In the case of `C=CCn1c(=O)c2c(nc(/C=C/c3cc(OC)c(OC)c(OC)c3)n2C)n(CC=C)c1=O` [Compound 46], the Ki [2] is listed as 15 nM, the Ki [3] is listed as greater than 100000 nM and the Ki [7, 25] is listed as 1930 nM.
